According to patent US20140051664A1, “COMBINATION THERAPY OF HSP90 INHIBITORY COMPOUNDS WITH RADIOTHERAPY” (SYNTA PHARMACEUTICALS CORP., priority 2011, published 2014):

How the values were obtained:
[1] = test system: HeLaHL human cervical carcinoma tumor cells; assay: Nude mouse xenograft study: in vivo growth of HeLaHL tumors, Compound 1 with or without fractionated ionizing radiation; conditions: HeLaHL xenograft in Nude mice
Method: The human cervical carcinoma cancer cell line, HeLaHL, carrying a human Hsp70 promoter-luciferase reporter construct, was obtained from the laboratory of Dr. Richard Morimoto (Northwestern University, Evanston, Ill., USA). The cells were cultured in Dulbecco's Modified Eagle growth media prepared with 10% fetal bovine serum (FBS), 1% 100×HEPES, 1% 100× Penicillin-Streptomycin, 1% 100×L-glutamine, 1% 100× sodium pyruvate and 1% 100×MEM non-essential amino acids. FBS was obtained from American Type Culture Collection (Manassas, Va., USA) and all other reagents were obtained from Invitrogen Corp. (Carlsbad, Calif., USA). Cells that had been cryopreserved in liquid nitrogen were rapidly thawed at 37° C. and transferred to a tissue culture flask containing growth media and then incubated at 37° C. in a 5% CO2 incubator. To expand the cell line, cultures were passaged every 3 to 4 days by washing with 10 mL of room temperature phosphate buffered saline (PBS) and then disassociating cells by adding 5 mL 1× trypsin-EDTA until the cells detached from the surface of the flask. […]
Eight week old, female homozygous Crl:CD1-Foxn1^nu/nu (Nude) mice were obtained from Charles River Laboratories (Wilmington, Mass., USA). […] Cell concentration was determined using a hemocytometer. […] Tumor volumes (V) were calculated by caliper measurement of the width (W), length (L) and thickness (T) of tumors using the following formula: V=0.5236×(L×W×T).
HeLaHL tumors were then permitted to develop in vivo until the majority reached 90-240 mm^3 in tumor volume, which required approximately 2½ weeks following implantation. […] Animals were randomized into treatment groups so that the average tumor volumes of each group were similar at the start of dosing. % T/C values, as a measure of efficacy, were determined as follows: • (i) If ΔT>0: % T/C=(ΔT/ΔC)×100 • (ii) If ΔT<0: % T/C=(ΔT/T0)×100 • (iii) ΔT=Change in average tumor volume between start of dosing and the end of study. • (iv) ΔC=Change in average tumor volume between start of dosing and the end of study. • (v) T0=Average tumor volume at start of dosing. […]

[2] = Body weight and systemic toxicity in HeLaHL tumor-bearing Nude mice of the xenograft study; format: in vivo; conditions: for animals removed from the study due to >20% body weight loss: 8 mice/group; for average bodyweight change relative to the start of the study: over the course of the study
Method: Eight week old, female homozygous Crl:CD1-Foxn1^nu/nu (Nude) mice were obtained from Charles River Laboratories (Wilmington, Mass., USA). Animals were housed 4-5/cage in micro-isolators, with a 12 hr/12 hr light/dark cycle, acclimated for at least 1 week prior to use and fed normal laboratory chow ad libitum. Studies were conducted on animals at 10 weeks of age at implantation. To implant HeLaHL tumor cells into Nude mice, cell cultures were trypsinized as above and centrifuged to pellet the cells. The supernatant was aspirated and the cell pellet was resuspended at a concentration of 1×10^8 cells/mL in non-supplemented media. Cell concentration was determined using a hemocytometer. Using a 27 gauge needle and 1 cc syringe, 0.1 mL of the cell suspension was injected subcutaneously into the flanks of Nude mice. Tumor volumes (V) were calculated by caliper measurement of the width (W), length (L) and thickness (T) of tumors using the following formula: V=0.5236×(L×W×T).
To formulate Compound 1 in 10/18 DRD, stock solutions of Compound 1 were prepared by dissolving the appropriate amounts of the compound in dimethyl sulfoxide (DMSO) by sonication in an ultrasonic water bath. Stock solutions were prepared weekly, stored at −20° C. and diluted fresh each day for dosing. A solution of 20% Cremophor RH40 (polyoxyl 40 hydrogenated castor oil; BASF Corp., Aktiengesellschaft, Ludwigshafen, Germany) in 5% dextrose in water (D5W; Abbott Laboratories, North Chicago, Ill., USA) was also prepared by first heating 100% Cremophor RH40 at 50-60° C. until liquefied and clear, diluting 1:5 with 100% D5W, reheating again until clear and then mixing well. This solution was stored at room temperature for up to 3 months prior to use. To prepare 10/18 DRD formulations for daily dosing, DMSO stock solutions were diluted 1:10 with 20% Cremophor RH40. The final 10/18 DRD formulation for dosing contained 10% DMSO, 18% Cremophor RH40, 3.6% dextrose, 68.4% water and the appropriate amount of test article. Animals were intravenously (i.v.) injected with this formulation at 10 mL per kg body weight on one day each week (on the same day with one of the 3 weekly radiation doses) for a total of 4 doses.
Animals were irradiated using a calibrated ^137Cs gamma-ray (0.662 MeV) Model 30 Mark I irradiator (J. L. Shepherd & Associates, San Fernando, Calif., USA). Tumor-bearing animals were anesthetized for approximately 4 minutes with inhaled isoflurane (IsoFlo, Abbott Laboratories, North Chicago, Ill., USA) delivered on a stream of oxygen at 0.8 L/min and 3% volume/volume on a mobile anesthesia machine (VetEquip, Pleasanton, Calif., USA). […] Anesthetized animals were positioned in the irradiator approximately 2.5 cm in front of the ^137Cs source using a restraint device capable of holding 5 animals (J. L Shepherd & Associates). Ionizing radiation was focused on the subcutaneously implanted HeLaHL tumors through a 1 cm wide collimator (J. L. […]
The ability of Compound 1 to enhance the in vivo anti-tumor activity of ionizing radiation was investigated. Tumor-bearing animals (8 mice/group) were i.v. injected 1 time per week for a total of 4 doses (open arrowheads) with 10 mL/kg of 10/18 DRD vehicle with or without 150 mg/kg Compound 1. Animals were also irradiated 3 times per week for a total of 12 doses (closed arrowheads) with 2 Gy radiation. In the combination treatment group, animals were dosed with Compound 15 hr before being irradiated on days on which both treatments were delivered together. Each group that was not dosed with Compound 1 was instead dosed with 10/18 DRD vehicle as a mock treatment. Each group that was not irradiated was instead anesthetized and restrained as a mock irradiation. Average tumor volumes for each group were determined every 3-5 days (error bars represent +/−SEM). […]

With `CC(C)c1cc(-c2nnc(O)n2-c2ccc3c(ccn3C)c2)c(O)cc1O` [Compound 1, 3-(2,4-dihydroxy-5-isopropyl-phenyl)-4-(1-methyl-indol-5-yl)-5-hydroxy-[1,2,4] triazole] the “% T/C value” ([1]; 150 mg/kg Compound 1 alone, i.v., 1 time per week, 4 doses, 10/18 DRD, mock irradiation) was 28%, the “% T/C value” ([1]; 150 mg/kg Compound 1 i.v. 1 time per week combined with 2 Gy radiation 3 times per week (12 doses), Compound 1 dosed 5 hr before irradiation) was −36% and the “% T/C value” ([1]; 150 mg/kg Compound 1 i.v. 1 time per week combined with 3-4 Gy radiation 3 times per week (4 Gy reduced to 3 Gy on Day 40), Compound 1 dosed 5 hr before irradiation) was −73%. The “death due to excessive body weight loss” value ([2]; 2 Gy radiation combined with 150 mg/kg Compound 1, among the animals removed from the study) was “One of the animals removed later died on Day 45”, the “animals removed from the study due to >20% body weight loss” value ([2]; 2 Gy radiation combined with 150 mg/kg Compound 1, toxicity on Day 42) was 2/8 and the “animals removed from the study due to >20% body weight loss” value ([2]; 4 Gy radiation combined with 150 mg/kg Compound 1, toxicity on Day 34) was 1/8. The “average bodyweight change relative to the start of the study” value ([2]; Compound 1 150 mg/kg plus 2 Gy radiation 3 times per week) was 0.4%, the “average bodyweight change relative to the start of the study” value ([2]; Compound 1 150 mg/kg plus 3-4 Gy radiation 3 times per week) was 1.2% and the “average bodyweight change relative to the start of the study” value ([2]; Compound 1 alone, 150 mg/kg i.v. 1 time per week) was 3.2%.
